# US20220249441A1, “Homodimeric Tobramycin Adjuvant Repurposes Novobiocin as an Effective Antibacterial Agent Against Gram-Negative Bacteria” (priority 2019, published 2022)
# Where two headings read alike, the source gives them in different places.
# Legend:
# P. aeruginosa = assay: Checkerboard assay (antibiotic + adjuvant combination MIC); assay type: cell-based, Pseudomonas aeruginosa; conditions: for MIC of Novobiocin + adjuvant (7.1 μM): PMBN or 1 at 7.1 μM
# Experimental: (§1) Antimicrobial Susceptibility Assay. The in vitro antimicrobial activity of all compounds/antibiotics against a panel of bacteria was evaluated by microbroth dilution method in accordance with the Clinical and Laboratory Standards Institute (CLSI) guidelines (using ATCC strains as quality control strains) (54). Overnight grown bacterial cultures were diluted in saline to achieve a 0.5 McFarland turbidity, followed by 1:50 dilution in Mueller-Hinton broth (MHB) for inoculation to a final concentration of approximately 5×10^5 CFU/mL. […] The lowest concentration that prevented the visible growth of bacteria was defined as the MIC for each antimicrobial agent. The broth with or without bacterial cells was used as positive or negative control, respectively.
# (§2) Checkerboard Assay. Combination studies with different antibiotics were performed in 96-well plates as previously described (19). Briefly, the antibiotic of interest was serially diluted in MHB along the abscissa while the adjuvant (tobramycin homodimer) was serially diluted in MHB along the ordinate. This creates a 10×7 matrices wherein each well consists of a combination of different antibiotic and adjuvant concentrations. Overnight grown bacterial cultures were diluted in saline to achieve a 0.5 McFarland turbidity, followed by 1:50 dilution in Mueller-Hinton broth (MHB) for inoculation to a final concentration of approximately 5×10^5 CFU/mL. […] MIC was recorded as wells with the lowest concentration of drugs with no bacterial growth. The fractional inhibitory concentration (FIC) for each antibiotic was calculated by dividing the MIC of the antibiotic in the presence of adjuvant by the MIC of the antibiotic alone. Similarly, the FIC of adjuvant was calculated by dividing the MIC of the adjuvant in the presence of antibiotic by the MIC of the adjuvant alone. FIC index is the sum of both FICs. FIC indices of ≤0.5 were deemed synergistic; >0.5-4, no interaction; and >4, antagonistic.
# [1] = test system: P. aeruginosa PAO1 and efflux deficient mutants, MDR/XDR isolates; assay: microbe, parasite or virus in culture; assay type: cell-based, Pseudomonas aeruginosa
# Experimental: Antimicrobial Susceptibility Assay. The in vitro antimicrobial activity of all compounds/antibiotics against a panel of bacteria was evaluated by microbroth dilution method in accordance with the Clinical and Laboratory Standards Institute (CLSI) guidelines (using ATCC strains as quality control strains) (54). […] The broth with or without bacterial cells was used as positive or negative control, respectively.
# A. baumannii = assay: Checkerboard assay (antibiotic + adjuvant combination MIC); assay type: cell-based, Acinetobacter baumannii
# Experimental: as §1, §2
# E. coli = assay: as above; assay type: cell-based, Escherichia coli; conditions: PMBN or 1 at 7.1 μM
# Experimental: as §1, §2
# K. pneumoniae = assay: as above; assay type: cell-based, Klebsiella pneumoniae; conditions: KP 113254; PMBN or 1 at 7.1 μM
# Experimental: as §1, §2
# E. cloacae = assay: as above; assay type: cell-based, Enterobacter cloacae; conditions: EC 118568; PMBN or 1 at 7.1 μM
# Experimental: as §1, §2
# [2] = P. aeruginosa PAO1, compound at 8 μM
# [3] = PA 262-101856, compound at 8 μM
# [4] = PA 264-104354, compound at 8 μM
# [5] = PA O200 (efflux-deficient), compound at 8 μM
# [6] = PA O750 (efflux-deficient), compound at 8 μM
compound,measurement,setting,value
"NC[C@H]1O[C@H](O[C@H]2[C@H](OCCCCc3cn(CCCCO[C@@H]4[C@@H](O)[C@H](N)C[C@H](N)[C@H]4O[C@H]4O[C@H](CN)[C@@H](O)C[C@H]4N)nn3)[C@@H](O)[C@H](N)C[C@@H]2N)[C@H](N)C[C@@H]1O [Compound 26, Nebramine Homodimer]",MIC of CAZ in the presence of compound,P. aeruginosa,128 µg/mL
same,MIC of Aztreonam + compound,P. aeruginosa; [2],1 µg/mL
same,MIC of Ceftazidime + compound,P. aeruginosa; [2],0.5 µg/mL
same,MIC of Imipenem + compound,P. aeruginosa; [2],2 µg/mL
same,MIC of Piperacillin + compound,P. aeruginosa; [2],8 µg/mL
same,MIC of ATM in the presence of compound,"P. aeruginosa; PA 259-96918, compound at 8 μM",8 µg/mL
same,MIC of IPM in the presence of compound,"P. aeruginosa; PA 259-96918, compound at 8 μM",64 µg/mL
same,MIC of ATM in the presence of compound,"P. aeruginosa; PA 260-97103, compound at 8 μM",16 µg/mL
same,MIC of CAZ in the presence of compound,"P. aeruginosa; PA 260-97103, compound at 8 μM",16 µg/mL
same,MIC of IPM in the presence of compound,"P. aeruginosa; PA 260-97103, compound at 8 μM",16 µg/mL
same,MIC of ATM in the presence of compound,P. aeruginosa; [3],16 µg/mL
same,MIC of CAZ in the presence of compound,P. aeruginosa; [3],16 µg/mL
same,MIC of IPM in the presence of compound,P. aeruginosa; [3],4 µg/mL
same,MIC of ATM in the presence of compound,P. aeruginosa; [4],8 µg/mL
same,MIC of CAZ in the presence of compound,P. aeruginosa; [4],32 µg/mL
same,MIC of IPM in the presence of compound,P. aeruginosa; [4],8 µg/mL
same,MIC of ATM in the presence of compound,"P. aeruginosa; PA 86052, compound at 8 μM",32 µg/mL
same,MIC of CAZ in the presence of compound,"P. aeruginosa; PA 86052, compound at 8 μM",64 µg/mL
same,MIC of IPM in the presence of compound,"P. aeruginosa; PA 86052, compound at 8 μM",16 µg/mL
same,MIC of ATM in the presence of compound,"P. aeruginosa; PA 88949, compound at 8 μM",16 µg/mL
same,MIC of CAZ in the presence of compound,"P. aeruginosa; PA 88949, compound at 8 μM",64 µg/mL
same,MIC of IPM in the presence of compound,"P. aeruginosa; PA 88949, compound at 8 μM",32 µg/mL
same,MIC of ATM in the presence of compound,"P. aeruginosa; PA 91433, compound at 8 μM",2 µg/mL
same,MIC of CAZ in the presence of compound,"P. aeruginosa; PA 91433, compound at 8 μM",0.5 µg/mL
same,MIC of IPM in the presence of compound,"P. aeruginosa; PA 91433, compound at 8 μM",8 µg/mL
same,MIC of ATM in the presence of compound,"P. aeruginosa; PA 100036, compound at 8 μM",4 µg/mL
same,MIC of CAZ in the presence of compound,"P. aeruginosa; PA 100036, compound at 8 μM",4 µg/mL
same,MIC of IPM in the presence of compound,"P. aeruginosa; PA 100036, compound at 8 μM",4 µg/mL
same,MIC of ATM in the presence of compound,"P. aeruginosa; PA 101243, compound at 8 μM",8 µg/mL
same,MIC of CAZ in the presence of compound,"P. aeruginosa; PA 101243, compound at 8 μM",32 µg/mL
same,MIC of IPM in the presence of compound,"P. aeruginosa; PA 101243, compound at 8 μM",8 µg/mL
same,MIC of ATM in the presence of compound,"P. aeruginosa; PA 101885, compound at 8 μM",4 µg/mL
same,MIC of CAZ in the presence of compound,"P. aeruginosa; PA 101885, compound at 8 μM",1 µg/mL
same,MIC of IPM in the presence of compound,"P. aeruginosa; PA 101885, compound at 8 μM",4 µg/mL
same,MIC of ATM in the presence of compound,"P. aeruginosa; PA 107092, compound at 8 μM",32 µg/mL
same,MIC of IPM in the presence of compound,"P. aeruginosa; PA 107092, compound at 8 μM",32 µg/mL
same,MIC of ATM in the presence of compound,"P. aeruginosa; PA 108590, compound at 8 μM",16 µg/mL
same,MIC of CAZ in the presence of compound,"P. aeruginosa; PA 108590, compound at 8 μM",32 µg/mL
same,MIC of IPM in the presence of compound,"P. aeruginosa; PA 108590, compound at 8 μM",8 µg/mL
same,MIC of ATM in the presence of compound,"P. aeruginosa; PA 109084, compound at 8 μM",16 µg/mL
same,MIC of CAZ in the presence of compound,"P. aeruginosa; PA 109084, compound at 8 μM",32 µg/mL
same,MIC of IPM in the presence of compound,"P. aeruginosa; PA 109084, compound at 8 μM",16 µg/mL
same,MIC of ATM in the presence of compound,"P. aeruginosa; PA 114228, compound at 8 μM",16 µg/mL
same,MIC of CAZ in the presence of compound,"P. aeruginosa; PA 114228, compound at 8 μM",1 µg/mL
same,MIC of IPM in the presence of compound,"P. aeruginosa; PA 114228, compound at 8 μM",4 µg/mL
same,MIC of ATM in the presence of compound,P. aeruginosa; [5],0.06 µg/mL
same,MIC of CAZ in the presence of compound,P. aeruginosa; [5],0.25 µg/mL
same,MIC of IPM in the presence of compound,P. aeruginosa; [5],1 µg/mL
same,MIC of ATM in the presence of compound,P. aeruginosa; [6],0.25 µg/mL
same,MIC of CAZ in the presence of compound,P. aeruginosa; [6],0.13 µg/mL
same,MIC of IPM in the presence of compound,P. aeruginosa; [6],2 µg/mL
same,MIC of ATM in the presence of compound,"P. aeruginosa; PAO1, compound at 8 μM",1 µg/mL
same,MIC of CAZ in the presence of compound,"P. aeruginosa; PAO1, compound at 8 μM",0.5 µg/mL
same,MIC of IPM in the presence of compound,"P. aeruginosa; PAO1, compound at 8 μM",2 µg/mL
same,MIC,[1]; PAO1 (wild-type),>128 µg/mL
same,MIC,[1]; PAO200 (first column so headed),>128 µg/mL
same,MIC,[1]; PAO200 (second column so headed),128 µg/mL
"polymyxin B nonapeptide [PMBN, reference compound]",MIC of Novobiocin + adjuvant (7.1 μM),"A. baumannii; AB 92247, PMBN or 1 at 7.1 μM",1 µg/mL
same,potentiation of novobiocin,A. baumannii; colistin-resistant mutant B of A. baumannii ATCC 17978,did not potentiate
same,MIC of Novobiocin + adjuvant (7.1 μM),E. coli; E. coli 94393,4 µg/mL
same,MIC of Novobiocin + adjuvant (7.1 μM),E. coli; E. coli 94474,32 µg/mL
same,MIC of Novobiocin + adjuvant (7.1 μM),P. aeruginosa; PA 91433,4 µg/mL
same,MIC of Novobiocin + adjuvant (7.1 μM),P. aeruginosa; PA 101243,8 µg/mL
same,MIC of Novobiocin + adjuvant (7.1 μM),P. aeruginosa; PA 114228,128 µg/mL
same,MIC of Novobiocin + adjuvant (7.1 μM),P. aeruginosa; PAO1,4 µg/mL
same,MIC of Novobiocin + adjuvant (7.1 μM),K. pneumoniae,64 µg/mL
same,MIC of Novobiocin + adjuvant (7.1 μM),E. cloacae,512 µg/mL
